One test has as its target T1, 17β-HSD1 (Homo sapiens, UniProt P14061).
T1 construct: was measured in intact cell monolayers of T47D and MDA-MB-231 breast cancer cells respectively; endogenous in cells; host or cells: T-47D human breast cancer cells
T1 sequence (P14061 1-328): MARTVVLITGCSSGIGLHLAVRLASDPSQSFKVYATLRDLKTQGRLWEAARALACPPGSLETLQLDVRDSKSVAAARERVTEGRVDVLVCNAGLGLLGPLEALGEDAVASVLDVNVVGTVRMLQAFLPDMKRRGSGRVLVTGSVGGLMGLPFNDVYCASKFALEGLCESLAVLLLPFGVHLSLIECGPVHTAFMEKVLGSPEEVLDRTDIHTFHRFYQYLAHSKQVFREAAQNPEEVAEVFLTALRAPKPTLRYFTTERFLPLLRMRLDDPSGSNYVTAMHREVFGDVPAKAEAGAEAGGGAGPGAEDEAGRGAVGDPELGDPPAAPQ
Put plainly: 17β-HSD Type I activity in T-47D cells (E1→E2). It counts as cell-based. As to conditions: for inhibition at 10 µM: T47D.

Another test has as its target T2, 17β-HSD2 (Homo sapiens, UniProt P37059).
T2 construct: was measured in intact cell monolayers of T47D and MDA-MB-231 breast cancer cells respectively; endogenous in cells; host or cells: MDA-MB-231 human breast cancer cells
T2 sequence (P37059 1-387): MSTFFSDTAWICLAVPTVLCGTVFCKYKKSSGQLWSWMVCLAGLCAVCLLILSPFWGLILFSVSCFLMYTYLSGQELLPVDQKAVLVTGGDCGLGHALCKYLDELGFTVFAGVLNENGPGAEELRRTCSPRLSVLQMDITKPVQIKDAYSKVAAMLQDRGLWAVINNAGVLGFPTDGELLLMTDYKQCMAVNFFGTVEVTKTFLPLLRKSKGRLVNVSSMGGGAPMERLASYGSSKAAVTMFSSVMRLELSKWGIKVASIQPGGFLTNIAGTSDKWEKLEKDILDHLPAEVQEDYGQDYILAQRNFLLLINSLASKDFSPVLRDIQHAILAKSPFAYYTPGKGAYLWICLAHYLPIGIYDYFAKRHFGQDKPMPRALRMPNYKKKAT
Briefly: 17β-HSD Type II activity in MDA-MB-231 cells (E2→E1). It counts as cell-based.

Setting [1] is: 10 μM, T-47D cells, E1→E2, read-out: % inhibition of 17β-HSD1 @ 10 μM.
[2] abbreviates: 10 μM, MDA-MB-231 cells, E2→E1, read-out: % inhibition of 17β-HSD2 @ 10 μM.
The mark [3] stands for this setting: T-47D cells, E1→E2, read-out: IC50 (17β-HSD1).
The mark [4] stands for this setting: read-out: % inhibition of 17β-HSD1 @ 10 μM, 10 μM, T-47D cells, E1→E2.
[5] abbreviates: MDA-MB-231, read-out: % inhibition of 17β-HSD2 @ 10 μM.

pIC50: −log10 of the molar value. Like-named read-outs stand apart in the source and are kept apart here.

By inhibition is commonly meant the change of the read-out against control, counted positive when it falls. As a reminder, the pIC50 is the negative decadic logarithm of the IC50, by convention in mol/L.

For `C[C@]12CCC3c4ccc(O)cc4CCC3C1CC(CC(=O)NCc1ccco1)[C@@H]2O` (stereo partly shown) [compound 667], the inhibition at 10 µM came out at 35% at 17β-HSD1 (setting [1]) and 14% on 17β-HSD2 (setting [2]).

For `C[C@]12CCC3c4ccc(O)cc4CCC3C1CC(C(=O)NCc1cccnc1)[C@@H]2O` (stereo partly shown) [compound 798], on 17β-HSD1, the pIC50 is 6.29. Besides, the inhibition at 10 µM was 91% on 17β-HSD1 (setting [1]) and -12% on 17β-HSD2 (setting [2]).

In the case of `C[C@]12CCC3c4ccc(O)cc4CCC3C1CC(C(=O)NCc1ccco1)[C@@H]2O` (stereo partly shown) [compound 679], the inhibition at 10 µM at 17β-HSD1 (setting [1]) was 87%; at 17β-HSD2 (setting [2]), -9%.

As for `COC(=O)Cn1cc2c(n1)[C@@]1(C)CCC3c4ccc(O)cc4CCC3C1C2` (stereo partly shown) [compound 806], the results for the inhibition at 10 µM at 17β-HSD1 (setting [1]) and on 17β-HSD2 (setting [2]) were 95% and 19%, respectively. Besides, on 17β-HSD1 (setting [3]), the negative logarithm of the IC50 (pIC50) was 6.04.

`C[C@]12CCC3c4ccc(OS(N)(=O)=O)cc4CCC3C1C/C(=C\c1ccccc1)C2=O` (stereo partly shown) [compound 314]: the results for the inhibition at 10 µM on 17β-HSD1 (setting [1]) and at 17β-HSD2 (setting [2]) were -1% and 1%, respectively.

Consider `CC(C)NC(=O)C1CC2C3CCc4cc(O)ccc4C3CC[C@]2(C)[C@H]1O` (stereo partly shown) [compound 801], for which the values for the inhibition at 10 µM at 17β-HSD1 (setting [4]) and on 17β-HSD2 (setting [5]) were 70% and -15%, respectively.

With `C[C@]12CCC3c4ccc(O)cc4CCC3C1CC(CC(=O)NCc1ccccn1)C2=O` (stereo partly shown) [compound 669], the results for the inhibition at 10 µM on 17β-HSD1 (setting [4]) and at 17β-HSD2 (setting [5]) were 82% and 7%, respectively.

With `C[C@]12CCC3c4ccc(O)cc4CCC3C1C/C(=C/O)C2=O` (stereo partly shown) [compound 486], the inhibition at 10 µM on 17β-HSD1 (setting [1]) was determined as 97%; on 17β-HSD2 (setting [2]), 15%. Also, at 17β-HSD1 (setting [3]), the pIC50 was 6.96.

Consider `CN(C)CCCNC(=O)CC1CC2C3CCc4cc(O)ccc4C3CC[C@]2(C)C1=O` (stereo partly shown) [compound 688], for which the inhibition at 10 µM at 17β-HSD1 (setting [1]) worked out at 36%; on 17β-HSD2 (setting [2]), 13%.

Consider `Cn1cccc1CNC(=O)C1CC2C3CCc4cc(O)ccc4C3CC[C@]2(C)[C@H]1O` (stereo partly shown) [compound 802], for which the results for the inhibition at 10 µM on 17β-HSD1 (setting [1]) and at 17β-HSD2 (setting [2]) were 86% and -7%, respectively.

For `Cn1c2c(c(=O)n1C)CC1C3CCc4cc(O)ccc4C3CC[C@]21C` (stereo partly shown) [compound 942], the inhibition at 10 µM on 17β-HSD1 (setting [1]) was found to be 32%; on 17β-HSD2 (setting [2]), 15%.

In the case of `C[C@]12CCC3c4ccc(O)cc4CCC3C1Cc1c2n[nH]c1C(=O)NCCc1cccnc1` (stereo partly shown) [compound 916], the inhibition at 10 µM was found to be 98.5% on 17β-HSD1 (setting [4]) and 3% at 17β-HSD2 (setting [5]). The pIC50 at 17β-HSD1 (setting [3]) was 6.52.

Take `C[C@]12CCC3c4ccc(O)cc4CCC3C1C/C(=C\c1ccc(C#N)cc1)[C@@H]2O` (stereo partly shown) [compound 510]: the figures for the inhibition at 10 µM on 17β-HSD1 (setting [1]) and on 17β-HSD2 (setting [2]) were 57% and 31%, respectively.

Consider `COc1cc2c(cc1O)CCC1C2CC[C@]2(C)C(=O)C(CC(=O)NCc3cccnc3)CC12` (stereo partly shown) [compound 1191], for which the inhibition at 10 µM at 17β-HSD1 (setting [1]) is 96%; on 17β-HSD2 (setting [2]) it was 1.2%. For the same compound, the pIC50 at 17β-HSD1 (setting [3]) is 6.54.

For `C[C@]12CCC3c4ccc(O)cc4CCC3C1C/C(=C\c1ccccc1)[C@@H]2O` (stereo partly shown) [compound 313], the inhibition at 10 µM was determined as 26% at 17β-HSD1 (setting [1]) and 5% on 17β-HSD2 (setting [2]).

On to `C[C@]12CCC3c4ccc(O)cc4/C(=N\O)CC3C1CC/C2=N\O` (stereo partly shown) [compound 454], for which the pIC50 on 17β-HSD1 (setting [3]) was 5.72. On 17β-HSD2 (setting [2]), the inhibition at 10 µM was 27%.

On to `CNC(=O)CC1CC2C3CCc4cc(O)ccc4C3CC[C@]2(C)C1=O` (stereo partly shown) [compound 745], for which the inhibition at 10 µM on 17β-HSD1 (setting [1]) amounted to 90%; at 17β-HSD2 (setting [2]), 3.5%. For the same compound, the negative-log IC50 (pIC50) at 17β-HSD1 (setting [3]) was 5.82.

As for `C[C@]12CCC3c4ccc(O)cc4CCC3C1CC(C(=O)NCC1CCCO1)[C@@H]2O` (stereo partly shown) [compound 779], the values for the inhibition at 10 µM on 17β-HSD1 (setting [1]) and at 17β-HSD2 (setting [2]) were 82% and 11%, respectively.

For the compound `C[C@]12CCC3c4ccc(O)cc4C(=O)CC3C1C/C(=C/O)C2=O` (stereo partly shown) [compound 784], the values for the inhibition at 10 µM on 17β-HSD1 (setting [1]) and on 17β-HSD2 (setting [2]) were 97% and -7%, respectively. Also, the negative logarithm of the IC50 (pIC50) at 17β-HSD1 (setting [3]) is 6.15.

Turning to `C[C@]12CCC3c4ccc(O)cc4CCC3C1Cc1c2n[nH]c1C(=O)NCC1CCCO1` (stereo partly shown) [compound 892], the inhibition at 10 µM at 17β-HSD1 (setting [4]) was 87%; on 17β-HSD2 (setting [5]) it was -4%.

As for `C[C@]12CCC3c4ccc(O)cc4CCC3C1Cc1cn(CCC#N)nc12` (stereo partly shown) [compound 921], the inhibition at 10 µM on 17β-HSD1 (setting [1]) was 95%; on 17β-HSD2 (setting [2]), 44%. Also, the pIC50 on 17β-HSD1 (setting [3]) is 6.14.

Turning to `C[C@]12CCC3c4ccc(O)cc4C(=O)CC3C1CCC2=O` (stereo partly shown) [compound 416], the figures for the inhibition at 10 µM at 17β-HSD1 (setting [1]) and at 17β-HSD2 (setting [2]) were 98% and 8%, respectively. For the same compound, the pIC50 on 17β-HSD1 (setting [3]) is 6.47.

Take `CN1CCN(C(=O)C2CC3C4CCc5cc(O)ccc5C4CC[C@]3(C)[C@H]2O)CC1` (stereo partly shown) [compound 799]: the inhibition at 10 µM was 74% on 17β-HSD1 (setting [1]) and -16% on 17β-HSD2 (setting [2]).

`COc1cc(/C=C2\CC3C4CCc5cc(OS(N)(=O)=O)ccc5C4CC[C@]3(C)C2=O)cc(OC)c1OC` (stereo partly shown) [compound 692]: the inhibition at 10 µM was 4% at 17β-HSD1 (setting [1]) and 17% on 17β-HSD2 (setting [2]).

As to `C[C@]12CCC3c4ccc(O)cc4CCC3C1C/C(=C(/O)C(F)(F)F)C2=O` (stereo partly shown) [compound 946], the “% inhibition of 17β-HSD1 @ 10 μM” value on 17β-HSD1 (10 μM, T-47D cells, E1→E2) came out at 87%. Also, the results for the inhibition at 10 µM at 17β-HSD1 (setting [4]) and on 17β-HSD2 (setting [5]) were 69% and -1.5%, respectively.

As to `CNC(=O)CC1CC2C3CCc4cc(O)ccc4C3CC[C@]2(C)[C@H]1O` (stereo partly shown) [compound 775], the inhibition at 10 µM at 17β-HSD1 (setting [1]) was 63%; at 17β-HSD2 (setting [2]), 11%.

Take `CO/N=C1\CC2C(CC[C@]3(C)/C(=N/OC)CCC23)c2ccc(O)cc21` (stereo partly shown) [compound 515]: the inhibition at 10 µM is 15% at 17β-HSD1 (setting [1]) and 31% on 17β-HSD2 (setting [2]).

For the compound `CCc1cc2c(cc1OS(N)(=O)=O)CCC1C2CC[C@]2(C)C(=O)C(CC(=O)NCc3cccnc3)CC12` (stereo partly shown) [compound 1039], on 17β-HSD1 (setting [3]), the negative-log IC50 (pIC50) is 5.29. Further, on 17β-HSD2 (setting [2]), the inhibition at 10 µM was -4%.

Regarding `CC(C)Cn1ncc2c1[C@@]1(C)CCC3c4ccc(O)cc4CCC3C1C2` (stereo partly shown) [compound 813], the inhibition at 10 µM at 17β-HSD1 (setting [4]) was 70%; on 17β-HSD2 (setting [5]), 44%.

On to `COCCn1ncc2c1[C@@]1(C)CCC3c4ccc(O)cc4CCC3C1C2` (stereo partly shown) [compound 809], for which the inhibition at 10 µM was determined as 83% on 17β-HSD1 (setting [1]) and 55% at 17β-HSD2 (setting [2]).

For the compound `CC(C)(C)/C=C1\CC2C3CCc4cc(O)ccc4C3CC[C@]2(C)C1=O` (stereo partly shown) [compound 748], the inhibition at 10 µM at 17β-HSD1 (setting [1]) was 82%; on 17β-HSD2 (setting [2]) it was 31%.

Consider `CCOC(=O)CC1CC2C3CCc4cc(O)ccc4C3CC[C@]2(C)C1=O` (stereo partly shown) [compound 573], for which, on 17β-HSD1, the pIC50 was 6.52. The inhibition at 10 µM on 17β-HSD1 (setting [1]) is 97%; at 17β-HSD2 (setting [2]), 18%.

Take `COc1cc(/C=C2\CC3C4CCc5cc(O)ccc5C4CC[C@]3(C)C2=O)cc(OC)c1OC` (stereo partly shown) [compound 328]: the inhibition at 10 µM is 24% on 17β-HSD1 (setting [1]) and -12% at 17β-HSD2 (setting [2]).

With `C[C@]12CCC3c4ccc(O)cc4CCC3C1C/C(=C\c1ccncc1)C2=O` (stereo partly shown) [compound 321], the values for the inhibition at 10 µM on 17β-HSD1 (setting [1]) and on 17β-HSD2 (setting [2]) were 34% and 25%, respectively.

For `Cc1cnc(CNC(=O)c2[nH]nc3c2CC2C4CCc5cc(O)ccc5C4CC[C@]32C)cn1` (stereo partly shown) [compound 896], the values for the inhibition at 10 µM at 17β-HSD1 (setting [4]) and at 17β-HSD2 (setting [5]) were 80% and 61%, respectively.

For the compound `C[C@]12CCC3c4ccc(O)cc4CCC3C1CC(=N/O)/C2=N\O` (stereo partly shown) [compound 338], the inhibition at 10 µM on 17β-HSD1 (setting [1]) is 55%; on 17β-HSD2 (setting [2]), -2%.

Regarding `CCN(C)C(=O)C1CC2C3CCc4cc(O)ccc4C3CC[C@]2(C)[C@H]1O` (stereo partly shown) [compound 800], the inhibition at 10 µM is 79% on 17β-HSD1 (setting [1]) and -6% on 17β-HSD2 (setting [2]).

Values taken from patent US8003783B2, “17B-hydroxysteroid dehydrogenase inhibitors” (Sterix Limited, priority 2004, dated 2011).
